Test results reported in ChEMBL document CHEMBL4823256 (J Med Chem, 2021).

What was measured:
in vitro [1] = conditions: human, MT4 cells
Human orthopneumovirus [2] = assay: microbe, parasite or virus in culture; conditions: human respiratory syncytial virus, A2, HEp-2, 96 h
in vitro [3] = conditions: human, Huh-7 cells
Hepatitis C virus = assay: microbe, parasite or virus in culture; conditions: subtype 1b, Huh-7, 72 h
in vitro [4] = conditions: human, HEp-2 cells
in vitro [5] = conditions: human, HEp-2 cells; remark: listed apart in the source
[6] = test system: Respiratory syncytial virus; assay: microbe, parasite or virus in culture; conditions: human respiratory syncytial virus, Primary bronchial epithelial cell, 72 h
in vitro [7] = conditions: human, Caco-2
in vitro [8] = conditions: human, Caco-2; remark: listed apart in the source
in vivo [9] = conditions: cynomolgus monkey, po, 20 mg/kg
in vivo [10] = conditions: Sprague-Dawley, rat, po, 8 mg/kg
Human orthopneumovirus [11] = conditions: hep-2
cells [12] = conditions: Homo sapiens, Primary bronchial epithelial cell, 48 h
in vivo [13] = conditions: chlorocebus sabaeus, iv, 10 mg/kg
in vivo [14] = conditions: cynomolgus monkey, iv, 10 mg/kg
in vivo [15] = conditions: cynomolgus monkey, iv, 10 mg/kg; remark: listed apart in the source
clinical [16] = conditions: human, in vivo, iv, 75 mg
cells [17] = conditions: Homo sapiens, HEp-2, 48 h
in vivo [18] = conditions: cynomolgus monkey, iv, 10 mg/kg; remark: listed apart in the source
in vivo [19] = conditions: chlorocebus sabaeus, iv, 10 mg/kg; remark: listed apart in the source
[20] = test system: Respiratory syncytial virus; conditions: primary bronchial epithelial cell
in vivo [21] = conditions: cynomolgus monkey, iv, 10 mg/kg; remark: listed apart in the source
in vivo [22] = conditions: cynomolgus monkey, iv, 10 mg/kg; remark: listed apart in the source
in vivo [23] = conditions: chlorocebus sabaeus, iv, 10 mg/kg; remark: listed apart in the source
in vivo [24] = conditions: chlorocebus sabaeus, iv, 10 mg/kg; remark: listed apart in the source
in vivo [25] = conditions: chlorocebus sabaeus, iv, 10 mg/kg; remark: listed apart in the source
clinical [26] = conditions: human, in vivo, iv, 75 mg; remark: listed apart in the source
in vivo [27] = conditions: cynomolgus monkey, iv, 20 mg/kg
in vivo [28] = conditions: cynomolgus monkey, iv, 20 mg/kg; remark: listed apart in the source
in vivo [29] = conditions: dog, po

Structure (SMILES)	EC50 (Human orthopneumovirus [2]) [nM]	CC50 (in vitro [4]) [nM]	EC50 [6] [nM]	selectivity ratio (in vitro [5]; Ratio CC50/EC50)	other results
C[C@@]1(c2ccc3c(N)ncnn23)O[C@H](CO)[C@@H](O)[C@H]1O	5500	–	–	–	CC50 at 120 h (in vitro [1]): 4500 nM; CC50 at 72 h (in vitro [3]): > 45000 nM
C#C[C@@]1(c2ccc3c(N)ncnn23)O[C@H](CO)[C@@H](O)[C@H]1O	34000	> 100000	–	–	CC50 at 120 h (in vitro [1]): > 50000 nM; CC50 at 72 h (in vitro [3]): > 89000 nM; EC50 (Hepatitis C virus): > 89000 nM
CC(C)(C)C(=O)SCCOP(=O)(OCCSC(=O)C(C)(C)C)OC[C@H]1O[C@@](C#N)(c2ccc3c(N)ncnn23)[C@H](O)[C@@H]1O	150	8700	–	–	selectivity ratio (in vitro [5]): 58
C[C@@]1(O)[C@H](O)[C@@H](CO)O[C@@]1(C#N)c1ccc2c(N)ncnn12	> 100000	> 100000	–	–	CC50 at 120 h (in vitro [1]): > 200000 nM; CC50 at 72 h (in vitro [3]): > 89000 nM; EC50 (Hepatitis C virus): > 89000 nM
CCC(CC)COC(=O)[C@H](C)N[P@@](=O)(OC[C@H]1O[C@@](C#N)(c2ccc3c(N)ncnn23)[C@H](O)[C@@H]1O)Oc1ccccc1	28	26000	65	–	–
CC(C)OC(=O)[C@H](C)NP(=O)(OC[C@H]1O[C@@](C#N)(c2ccc3c(N)ncnn23)[C@H](O)[C@@H]1O)Oc1ccccc1 (some centres not stated)	360	> 100000	2500	> 277	–
C[C@H](NP(=O)(OC[C@H]1O[C@@](C#N)(c2ccc3c(N)ncnn23)[C@H](O)[C@@H]1O)Oc1ccccc1)C(=O)OC1CCC1 (some centres not stated)	75	34000	420	453	–
CCOC(=O)[C@H](C)NP(=O)(N[C@@H](C)C(=O)OCC)OC[C@H]1O[C@@](C#N)(c2ccc3c(N)ncnn23)[C@H](O)[C@@H]1O	6480	> 100000	–	> 15	–
C[C@H](NP(=O)(OC[C@H]1O[C@@](C#N)(c2ccc3c(N)ncnn23)[C@H](O)[C@@H]1O)Oc1ccccc1)C(=O)OC1CCCC1 (some centres not stated)	170	> 80000	350	471	–
Nc1ncnn2c([C@@H]3O[C@H](CO)[C@@H](O)[C@H]3O)ccc12	> 50000	36	–	–	CC50 at 120 h (in vitro [1]): < 10 nM; EC50 (Hepatitis C virus): 3.5 nM
C[C@H](NP(=O)(OC[C@H]1O[C@@](C#N)(c2ccc3c(N)ncnn23)[C@H](O)[C@@H]1O)Oc1ccccc1)C(=O)OCC(C)(C)C (some centres not stated)	50	11000	530	220	–
C#C[C@@]1(c2ccc3c(N)ncnn23)O[C@H](COP(=O)(N[C@@H](C)C(=O)OCC(CC)CC)Oc2ccccc2)[C@@H](O)[C@H]1O (some centres not stated)	750	> 100000	–	> 133	–
C[C@H](NP(=O)(OC[C@H]1O[C@@](C#N)(c2ccc3c(N)ncnn23)[C@H](O)[C@@H]1O)Oc1ccccc1)C(=O)OC(C)(C)C (some centres not stated)	4500	> 100000	> 5000	> 22	–
CCOC(=O)[C@H](C)NP(=O)(OC[C@H]1O[C@@](C#N)(c2ccc3c(N)ncnn23)[C@H](O)[C@@H]1O)Oc1ccccc1 (some centres not stated)	300	> 73000	850	> 243	–
CCC(CC)OC(=O)[C@H](C)NP(=O)(OC[C@H]1O[C@@](C#N)(c2ccc3c(N)ncnn23)[C@H](O)[C@@H]1O)Oc1ccccc1 (some centres not stated)	310	> 100000	> 5000	323	–
CCC(=O)OC[C@H]1O[C@@](C#N)(c2ccc3c(N)ncnn23)[C@H](OC(=O)CC)[C@@H]1OC(=O)CC	430	> 100000	–	–	Papp B→A (in vitro [7]): 0.26 ×10⁻⁶ cm/s; Papp A→B (in vitro [8]): < 0.1 ×10⁻⁶ cm/s
C[C@H](NP(=O)(OC[C@H]1O[C@@](C#N)(c2ccc3c(N)ncnn23)[C@H](O)[C@@H]1O)Oc1ccccc1)C(=O)OC1CCCCCCC1 (some centres not stated)	28	48000	–	–	selectivity ratio (in vitro [5]): 1710
CC(C)[C@H](N)C(=O)OC[C@H]1O[C@@](C#N)(c2ccc3c(N)ncnn23)[C@H](O)[C@@H]1O	1110	> 100000	–	–	Papp B→A (in vitro [7]): 0.45 ×10⁻⁶ cm/s; Papp A→B (in vitro [8]): 0.55 ×10⁻⁶ cm/s
C[C@H](NP(=O)(OC[C@H]1O[C@@](C#N)(c2ccc3c(N)ncnn23)[C@H](O)[C@@H]1O)Oc1ccccc1)C(=O)OCC1CC1 (some centres not stated)	44	50000	620	–	selectivity ratio (in vitro [5]): 1140
C[C@H](NP(=O)(OC[C@H]1O[C@@](C#N)(c2ccc3c(N)ncnn23)[C@H](O)[C@@H]1O)Oc1ccccc1)C(=O)OCC1CCC1 (some centres not stated)	24	23000	130	–	selectivity ratio (in vitro [5]): 958
CCC(CC)COC(=O)[C@H](C)NP(=O)(N[C@@H](C)C(=O)OCC(CC)CC)OC[C@H]1O[C@@](C#N)(c2ccc3c(N)ncnn23)[C@H](O)[C@@H]1O	310	36000	170	–	selectivity ratio (in vitro [5]): 116
CC(=O)OC[C@H]1O[C@@](C#N)(c2ccc3c(N)ncnn23)[C@H](OC(C)=O)[C@@H]1OC(C)=O	820	> 100000	–	–	Papp B→A (in vitro [7]): 1.9 ×10⁻⁶ cm/s; Papp A→B (in vitro [8]): 0.9 ×10⁻⁶ cm/s
CC(C)C(=O)OC[C@H]1O[C@@](C#N)(c2ccc3c(N)ncnn23)[C@H](OC(=O)C(C)C)[C@@H]1OC(=O)C(C)C	260	81000	–	–	bioavailability (in vivo [9]): 28%; bioavailability (in vivo [10]): 57%; Papp B→A (in vitro [7]): 1.5 ×10⁻⁶ cm/s
CCC(CC)COC(=O)[C@H](C)N[P@](=O)(OC[C@H]1O[C@@](C#N)(c2ccc3c(N)ncnn23)[C@H](O)[C@@H]1O)Oc1ccccc1 (stereo in doubt)	–	–	–	–	EC50 (Human orthopneumovirus [11]): 15 nM; bioavailability (in vivo [9]): < 1%; IC50 (cells [12]): 140 nM; clearance at 0.5 h (in vivo [13]): 35.5 mL/min/kg; Vd at 0.5 h (in vivo [14]): 0.45 L/kg; half-life at 0.5 h (in vivo [15]): 24 min; Cmax at 0.5 h (clinical [16]): 5 µM; IC50 (cells [17]): 110 nM; Cmax at 0.5 h (in vivo [18]): 22.7 µM; half-life at 0.5 h (in vivo [19]): 48 min; EC50 [20]: 49 nM; clearance at 0.5 h (in vivo [21]): 32 mL/min/kg; AUC(0-inf) at 0.5 h (in vivo [22]): 8.8 µM·h; Cmax at 0.5 h (in vivo [23]): 12.6 µM; AUC(0-inf) at 0.5 h (in vivo [24]): 7.9 µM·h; Vd at 0.5 h (in vivo [25]): 0.94 L/kg; Cmax at 1 h (clinical [26]): < 1 µM
CCC(CC)COC(=O)[C@H](C)N[P@](=O)(OC[C@H]1O[C@@](C#N)(c2ccc3c(N)ncnn23)[C@H](O)[C@@H]1O)Oc1ccccc1 (stereo in doubt; 18j)	27	–	69	–	–
N#C[C@@]1(c2ccc3c(N)ncnn23)O[C@H](CO)[C@@H](O)[C@H]1O [GS-441524]	530	> 100000	1850	–	CC50 at 120 h (in vitro [1]): > 50000 nM; bioavailability (in vivo [9]): 3.4%; IC50 (cells [12]): 220 nM; bioavailability (in vivo [10]): 12%; Cmax at 0.5 h (in vivo [27]): 79.2 µM; Papp B→A (in vitro [7]): 2.1 ×10⁻⁶ cm/s; CC50 at 72 h (in vitro [3]): > 89000 nM; AUC(0-inf) at 0.5 h (in vivo [28]): 123 µM·h; IC50 (cells [17]): 350 nM; Papp A→B (in vitro [8]): 0.17 ×10⁻⁶ cm/s; bioavailability (in vivo [29]): 89%
